Measured values: PMC12010937, “Evaluation of FXR Activity in Pollutants Identified in Sewage Sludge and Subsequent in Vitro and in Vivo Characterization of Metabolic Effects of Triphenyl Phosphate” (Environmental Health Perspectives, 2025)
Values joined by “and” are separate entries in the source; they are usually repeats but may differ in a detail not shown here. Equal entries are not always repeated.

Key:
[1] = system: C57BL/6N mice; assay: Oil Red O lipid staining of liver sections; type: in vivo; settings: TPHP exposure groups
Experimental: (§1) Male C57BL/6N mice (8 wk of age) were purchased from Beijing Vital River Laboratory Inc. and acclimated to the environment for 2 wk before they were used for experiments. The environment was maintained at 22°C, in a 12-h light/dark cycle with 50%–60% relative humidity and fed standard chow diets. Because the male mice are more sensitive to metabolic disease than female mice and the estrous cycle of female mice may induce variability to the metabolic phenotypes,[50] only male mice were used in this study. Animals were randomly assigned to control or TPHP treatment groups (five mice per group). Mice were exposed to corn oil (control) purchased from Sigma-Aldrich (C8267) or TPHP (dissolved in corn oil) at 10mg/kg or 50mg/kg body weight (BW) by daily oral gavage for 35 d. The administered volume was 5mL/kg BW. The TPHP corn oil solutions for administration were prepared by dissolving the TPHP in corn oil, and the solutions were stored at −20°C and freshly prepared each week. BW was measured every other day during the dosing period. At the end of experiments, the mice were anesthetized with isoflurane, then blood was collected from the retro-orbital sinus via orbital puncture, and then the mice were euthanized by cervical dislocation. […]

[2] = system: C57BL/6N mice; assay: Hepatic total bile acids (TBA colorimetric assay kit); type: in vivo; settings: for Hepatic TBA: individual mice
Experimental: as §1, with “dislocation. The liver was isolated, weighted, and divided into three fractions: one fraction was fixed with 4% neutral-buffered formalin for Oil Red staining; another fraction was frozen in liquid nitrogen and stored at −80°C for the BA targeted analysis, lipidomic analysis, and qPCR analysis; the remaining fraction was embedded with 3% carboxymethylcellulose (CMC) for MSI analysis. The ileum was also isolated, weighted, and stored at −80°C for the BA targeted analysis and qRT-PCR analysis.” for “dislocation.”
The TG level in the liver was determined using a triglyceride enzymatic assay kit (Applygen). […] The total BA level in the liver was determined using a Total Bile Acid (TBA) Colorimetric Assay Kit (Elabscience). […] Both the TG and TBA results were normalized by the protein concentration determined by bicinchoninic acid (BCA) method using a BCA kit (Applygen).

[3] = system: FXR, PXR and PPARγ target genes in liver; assay: qPCR of genes in mouse liver; type: in vivo, C57BL/6N mice
Experimental: (§2) Male C57BL/6N mice (8 wk of age) were purchased from Beijing Vital River Laboratory Inc. and acclimated to the environment for 2 wk before they were used for experiments. The environment was maintained at 22°C, in a 12-h light/dark cycle with 50%–60% relative humidity and fed standard chow diets. Because the male mice are more sensitive to metabolic disease than female mice and the estrous cycle of female mice may induce variability to the metabolic phenotypes,[50] only male mice were used in this study. Animals were randomly assigned to control or TPHP treatment groups (five mice per group). Mice were exposed to corn oil (control) purchased from Sigma-Aldrich (C8267) or TPHP (dissolved in corn oil) at 10mg/kg or 50mg/kg body weight (BW) by daily oral gavage for 35 d. The administered volume was 5mL/kg BW. The TPHP corn oil solutions for administration were prepared by dissolving the TPHP in corn oil, and the solutions were stored at −20°C and freshly prepared each week. BW was measured every other day during the dosing period. At the end of experiments, the mice were anesthetized with isoflurane, then blood was collected from the retro-orbital sinus via orbital puncture, and then the mice were euthanized by cervical dislocation. The liver was isolated, weighted, and divided into three fractions: one fraction was fixed with 4% neutral-buffered formalin for Oil Red staining; another fraction was frozen in liquid nitrogen and stored at −80°C for the BA targeted analysis, lipidomic analysis, and qPCR analysis; the remaining fraction was embedded with 3% carboxymethylcellulose (CMC) for MSI analysis. The ileum was also isolated, weighted, and stored at −80°C for the BA targeted analysis and qRT-PCR analysis. Cecal contents were collected from the cecum of mice for the 16S rRNA gene sequencing analysis. Animal study protocols were approved by the Animal Care and Use Committee of Peking University (approval number: Urban-WanY-1).
Total RNA was extracted from cells or mice tissues (liver and ileum) using the Total RNA kit (Tiangen Biotech), and concentration and quality of the RNA were determined using a SMA4000 Nanodrop spectrophotometer (Merinton). Then, the RNA was reverse transcribed into cDNA by HiScript III RT SuperMix for qPCR (Vazyme). In addition, qPCR was performed in the Mx3005P real-time PCR system (Agilent Technologies) with the ChamQ SYBR qPCR Master Mix Kit (Vazyme). Reactions were carried out for 5 min at 95°C, followed by 40 cycles of two-step PCR for 10 s at 95°C and 30 s at 60°C. The relative RNA expression levels of the target genes were normalized to GAPDH using the 2^−ΔΔCt method.

[4] = system: C57BL/6N mice; assay: Serum ALT and AST activities; type: in vivo; settings: for Serum ALT activity / Serum AST activity: individual mice
Experimental: as §2
Blood samples collected from the mice were incubated in a 37°C water bath for 30 min and then incubated under 4°C for 5 h. After centrifuged at 5,000×g and 4°C for 5 min, the serums were aliquoted and stored at −80°C . The determination of serum alanine transaminase (ALT) and aspartate transaminase (AST) activities in the serum were determined using the commercial kits (E2021, E2023; Applygen).

[5] = TPHP-H: 50 mg/kg daily oral gavage 35 d
[6] = TPHP-L: 10 mg/kg daily oral gavage 35 d

O=P(Oc1ccccc1)(Oc1ccccc1)Oc1ccccc1 [TPHP, triphenyl phosphate]
Oil Red O staining intensity of liver sections vs control (in words) [1]: higher | Increase of total BA concentration in the liver relative to the control group ([2]; TPHP-H group, 35 d of exposure): 2 fold | Hepatic TBA [2, 5]: 2.67 µmol/g and 2.92 µmol/g and 2.08 µmol/g | Hepatic TBA [2, 6]: 1.89 µmol/g and 1.55 µmol/g and 1.58 µmol/g | Relative mRNA expression of Acc1 in liver ([3]; TPHP-H: 50 mg/kg, 35 d): 1.30 fold changes and 1.85 fold changes and 1.75 fold changes | Relative mRNA expression of Acly in liver ([3]; TPHP-H: 50 mg/kg, 35 d): 1.31 fold changes and 1.49 fold changes and 1.68 fold changes | Relative mRNA expression of Bsep in liver ([3]; TPHP-H: 50 mg/kg, 35 d): 0.59 fold changes and 0.34 fold changes and 0.54 fold changes | Relative mRNA expression of Cd36 in liver ([3]; TPHP-H: 50 mg/kg, 35 d): 0.97 fold changes and 1.09 fold changes and 0.65 fold changes | Relative mRNA expression of Cpt1a in liver ([3]; TPHP-H: 50 mg/kg, 35 d): 0.75 fold changes and 0.89 fold changes and 1.31 fold changes | Relative mRNA expression of Cyp2b10 in liver ([3]; TPHP-H: 50 mg/kg, 35 d): 1.32 fold changes and 0.97 fold changes and 0.68 fold changes | Relative mRNA expression of Cyp3a11 in liver ([3]; TPHP-H: 50 mg/kg, 35 d): 0.93 fold changes and 0.74 fold changes and 0.82 fold changes | Relative mRNA expression of Cyp7a1 in liver ([3]; TPHP-H: 50 mg/kg, 35 d): 2.89 fold changes and 2.77 fold changes and 3.66 fold changes | Relative mRNA expression of Cyp7b1 in liver ([3]; TPHP-H: 50 mg/kg, 35 d): 1.54 fold changes and 0.80 fold changes and 0.81 fold changes | Relative mRNA expression of Cyp8b1 in liver ([3]; TPHP-H: 50 mg/kg, 35 d): 1.26 fold changes and 1.33 fold changes and 0.86 fold changes | Relative mRNA expression of Cyp27a1 in liver ([3]; TPHP-H: 50 mg/kg, 35 d): 0.93 fold changes and 1.23 fold changes and 1.03 fold changes | Relative mRNA expression of Dgat2 in liver ([3]; TPHP-H: 50 mg/kg, 35 d): 1.67 fold changes and 1.99 fold changes and 1.63 fold changes | Relative mRNA expression of Fae in liver ([3]; TPHP-H: 50 mg/kg, 35 d): 1.30 fold changes and 0.87 fold changes and 0.66 fold changes | Relative mRNA expression of Hmgcs2 in liver ([3]; TPHP-H: 50 mg/kg, 35 d): 0.85 fold changes and 0.69 fold changes and 1.21 fold changes | Relative mRNA expression of Mdr3 in liver ([3]; TPHP-H: 50 mg/kg, 35 d): 0.80 fold changes and 0.96 fold changes and 0.74 fold changes | Relative mRNA expression of Mrp2 in liver ([3]; TPHP-H: 50 mg/kg, 35 d): 0.83 fold changes and 0.55 fold changes and 0.76 fold changes | Relative mRNA expression of Mrp3 in liver ([3]; TPHP-H: 50 mg/kg, 35 d): 1.11 fold changes and 0.88 fold changes and 0.87 fold changes | Relative mRNA expression of Mrp4 in liver ([3]; TPHP-H: 50 mg/kg, 35 d): 0.96 fold changes and 0.80 fold changes and 0.67 fold changes | Relative mRNA expression of Ntcp in liver ([3]; TPHP-H: 50 mg/kg, 35 d): 1.19 fold changes and 1.58 fold changes and 1.51 fold changes | Relative mRNA expression of Scd1 in liver ([3]; TPHP-H: 50 mg/kg, 35 d): 0.43 fold changes and 0.64 fold changes and 0.58 fold changes | Relative mRNA expression of Srebp1c in liver ([3]; TPHP-H: 50 mg/kg, 35 d): 2.82 fold changes and 2.12 fold changes and 2.38 fold changes | Relative mRNA expression of Acc1 in liver ([3]; TPHP-L: 10 mg/kg, 35 d): 1.60 fold changes and 1.11 fold changes and 0.88 fold changes | Relative mRNA expression of Acly in liver ([3]; TPHP-L: 10 mg/kg, 35 d): 1.63 fold changes and 1.57 fold changes and 1.51 fold changes | Relative mRNA expression of Bsep in liver ([3]; TPHP-L: 10 mg/kg, 35 d): 0.72 fold changes and 0.48 fold changes and 0.41 fold changes | Relative mRNA expression of Cd36 in liver ([3]; TPHP-L: 10 mg/kg, 35 d): 1.18 fold changes and 0.78 fold changes and 1.04 fold changes | Relative mRNA expression of Cpt1a in liver ([3]; TPHP-L: 10 mg/kg, 35 d): 0.92 fold changes and 1.04 fold changes and 0.99 fold changes | Relative mRNA expression of Cyp3a11 in liver ([3]; TPHP-L: 10 mg/kg, 35 d): 1.21 fold changes and 0.78 fold changes and 0.67 fold changes | Relative mRNA expression of Cyp7b1 in liver ([3]; TPHP-L: 10 mg/kg, 35 d): 0.65 fold changes and 1.07 fold changes and 0.98 fold changes | Relative mRNA expression of Cyp8b1 in liver ([3]; TPHP-L: 10 mg/kg, 35 d): 1.44 fold changes and 1.13 fold changes and 0.80 fold changes | Relative mRNA expression of Cyp27a1 in liver ([3]; TPHP-L: 10 mg/kg, 35 d): 1.02 fold changes and 1.04 fold changes and 0.92 fold changes | Relative mRNA expression of Dgat2 in liver ([3]; TPHP-L: 10 mg/kg, 35 d): 1.22 fold changes and 1.92 fold changes and 1.34 fold changes | Relative mRNA expression of Fae in liver ([3]; TPHP-L: 10 mg/kg, 35 d): 1.41 fold changes and 0.87 fold changes and 0.80 fold changes | Relative mRNA expression of Hmgcs2 in liver ([3]; TPHP-L: 10 mg/kg, 35 d): 0.83 fold changes and 1.02 fold changes and 0.93 fold changes | Relative mRNA expression of Mdr3 in liver ([3]; TPHP-L: 10 mg/kg, 35 d): 1.09 fold changes and 0.85 fold changes and 0.67 fold changes | Relative mRNA expression of Mrp2 in liver ([3]; TPHP-L: 10 mg/kg, 35 d): 0.71 fold changes and 1.09 fold changes and 0.57 fold changes | Relative mRNA expression of Mrp3 in liver ([3]; TPHP-L: 10 mg/kg, 35 d): 0.90 fold changes and 0.72 fold changes and 0.89 fold changes | Relative mRNA expression of Mrp4 in liver ([3]; TPHP-L: 10 mg/kg, 35 d): 0.86 fold changes and 0.84 fold changes and 0.91 fold changes | Relative mRNA expression of Ntcp in liver ([3]; TPHP-L: 10 mg/kg, 35 d): 1.52 fold changes and 1.66 fold changes and 1.26 fold changes | Relative mRNA expression of Scd1 in liver ([3]; TPHP-L: 10 mg/kg, 35 d): 0.40 fold changes and 0.59 fold changes and 0.35 fold changes | Relative mRNA expression of Srebp1c in liver ([3]; TPHP-L: 10 mg/kg, 35 d): 2.35 fold changes and 1.89 fold changes and 2.01 fold changes | Expression of FXR-regulated lipogenesis genes (Srebp1c, Dgat2, Acly, Acc1) in liver (in words) ([3]; TPHP-exposed mice): up-regulated | Expression of Scd1 in the liver (in words) ([3]; TPHP-exposure groups): significantly lower | Expression of PXR and PPARγ target genes in the liver, except Scd1 (in words) ([3]; after TPHP exposure): not significantly different | Expression of Cyp7a1 in liver, higher than in control group ([3]; both TPHP-L and TPHP-H groups): approximately 2 folds | Serum ALT vs control group (in words) ([4]; TPHP exposure groups): significantly higher | Serum AST vs control group (in words) ([4]; TPHP exposure groups): higher | Serum ALT activity [4, 5]: 14.85 and 21.35 and 16.29 | Serum AST activity [4, 5]: 72.41 and 61.71 and 102.89 | Serum ALT activity [4, 6]: 15.83 and 17.21 and 25.56 | Serum AST activity [4, 6]: 84.28 and 74.46 and 60.21
